{
  "source": "patent EP2818472A1",
  "about": "“Imidazo[4,5-c]pyridine and pyrrolo[3,2-c]pyridine compounds as G-protein-coupled receptor kinase 5 (GRK5) modulators” (Max-Planck-Gesellschaft zur Förderung der Wissenschaften …, priority 2013, dated 2014)",
  "data": [
    {"system": "beta-TC6 cells", "experiment": "Insulin HTRF assay (relative activity Ar) in beta-TC6 cells", "format": "cell-based, mouse", "details": "Mus musculus, Beta-TC6, 4 h, insulin HTRF, supernatant of beta-TC6 cells, incubation with test compound at 37°C for 2, 3, 4h; read-out: Ar (relative activity)", "summary_of_the_method": "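beta-TC6 cells (15k/well, seeded 24 or 48 h) washed, then exposed to compound in induction buffer (0.5% DMSO final) for 2, 3 or 4 h at 37°C.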", "units": {"Emax": "%"}, "values": [
      {"smiles": "COc1cccc(-c2cc3c(Nc4ccc(OC)c(O)c4)nccc3[nH]2)c1", "note": "[Compound 312, 2-methoxy-5-[[2-(3-methoxyphenyl)-1H-pyrrolo[3,2-c]pyridin-4-yl]amino]phenol]", "Emax": "50 to 100"},
      {"smiles": "COc1cccc(-c2cc3c(Nc4ccc(C(=O)N(C)C)cc4)nccc3[nH]2)c1", "note": "[Compound 313, 4-[[2-(3-methoxyphenyl)-1H-pyrrolo[3,2-c]pyridin-4-yl]amino]-N,N-dimethyl-benzamide]", "Emax": "> 100"},
      {"smiles": "Clc1cccc(-c2cc3c(Nc4cccnc4)nccc3[nH]2)c1", "note": "[Compound 315, 2-(3-chlorophenyl)-N-(3-pyridyl)-1H-pyrrolo[3,2-c]pyridin-4-amine]", "Emax": "30 to 50"},
      {"smiles": "Cn1c(-c2cccc(Cl)c2)cc2c(Nc3ccncn3)nccc21", "note": "[Compound 316, 2-(3-chlorophenyl)-1-methyl-N-pyrimidin-4-yl-pyrrolo[3,2-c]pyridin-4-amine]", "Emax": "30 to 50"},
      {"smiles": "Oc1ccc(Nc2nccc3[nH]c(-c4ccccc4)cc23)cc1", "note": "[Compound 317, 4-[(2-phenyl-1H-pyrrolo[3,2-c]pyridin-4-yl)amino]phenol]", "Emax": "50 to 100"},
      {"smiles": "NC(=O)c1ccc(Nc2nccc3[nH]c(-c4ccccc4)cc23)cc1", "note": "[Compound 318, 4-[(2-phenyl-1H-pyrrolo[3,2-c]pyridin-4-yl)amino]benzamide]", "Emax": "> 100"},
      {"smiles": "c1ccc(-c2cc3c(Nc4cccnc4)nccc3[nH]2)cc1", "note": "[Compound 319, 2-phenyl-N-(3-pyridyl)-1H-pyrrolo[3,2-c]pyridin-4-amine]", "Emax": "50 to 100"},
      {"smiles": "CN1CCN(c2ccc(Nc3nccc4[nH]c(-c5ccccc5)cc34)cc2)CC1", "note": "[Compound 320, N-[4-(4-methylpiperazin-1-yl)phenyl]-2-phenyl-1H-pyrrolo[3,2-c]pyridin-4-amine]", "Emax": "30 to 50"},
      {"smiles": "c1ccc(-c2cc3c(Nc4ccccn4)nccc3[nH]2)cc1", "note": "[Compound 321, 2-phenyl-N-(2-pyridyl)-1H-pyrrolo[3,2-c]pyridin-4-amine]", "Emax": "30 to 50"},
      {"smiles": "CN(C)C(=O)c1ccc(Nc2nccc3[nH]c(-c4ccccc4)cc23)cc1", "note": "[Compound 322, N,N-dimethyl-4-[(2-phenyl-1 H-pyrrolo[3,2-c]pyridin-4-yl)amino]benzamide]", "Emax": "> 100"},
      {"smiles": "CC(=O)Nc1cccc(Nc2nccc3[nH]c(-c4ccccc4)cc23)c1", "note": "[Compound 323, N-[3-[(2-phenyl-1 H-pyrrolo[3,2-c]pyridin-4-yl)amino]phenyl]acetamide]", "Emax": "50 to 100"},
      {"smiles": "CS(=O)(=O)c1ccc(Nc2nccc3[nH]c(-c4ccccc4)cc23)cc1", "note": "[Compound 324, N-(4-methylsulfonylphenyl)-2-phenyl-1H-pyrrolo[3,2-c]pyridin-4-amine]", "Emax": "50 to 100"},
      {"smiles": "Cn1c(-c2ccccc2)cc2c(Nc3ccc(C(N)=O)cc3)nccc21", "note": "[Compound 325, 4-[(1-methyl-2-phenyl-pyrrolo[3,2-c]pyridin-4-yl)amino]benzamide]", "Emax": "30 to 50"},
      {"smiles": "COc1ccc(Nc2nccc3c2cc(-c2ccccc2)n3C)cc1OC", "note": "[Compound 326, N-(3,4-dimethoxyphenyl)-1-methyl-2-phenyl-pyrrolo[3,2-c]pyridin-4-amine]", "Emax": "30 to 50"},
      {"smiles": "Cn1c(-c2ccccc2)cc2c(Nc3ccccn3)nccc21", "note": "[Compound 327, 1-methyl-2-phenyl-N-(2-pyridyl)pyrrolo[3,2-c]pyridin-4-amine]", "Emax": "50 to 100"},
      {"smiles": "Cn1c(-c2ccccc2)cc2c(Nc3cccc(O)c3)nccc21", "note": "[Compound 328, 3-[(1-methyl-2-phenyl-pyrrolo[3,2-c]pyridin-4-yl)amino]phenol]", "Emax": "30 to 50"},
      {"smiles": "COc1cc(Nc2nccc3[nH]c(-c4ccccc4)nc23)cc(OC)c1OC", "note": "[Compound 329, 2-phenyl-N-(3,4,5-trimethoxyphenyl)-1H-imidazo[4,5-c]pyridin-4-amine]", "Emax": "50 to 100"},
      {"smiles": "COc1ccc(Nc2nccc3[nH]c(-c4ccccc4)nc23)cc1OC", "note": "[Compound 330, N-(3,4-dimethoxyphenyl)-2-phenyl-1H-imidazo[4,5-c]pyridin-4-amine]", "Emax": "> 100"},
      {"smiles": "CN(C)c1cccc(Nc2nccc3[nH]c(-c4ccccc4)nc23)c1", "note": "[Compound 331, N1,N1-dimethyl-N3-(2-phenyl-1H-imidazo[4,5-c]pyridin-4-yl)benzene-1,3-diamine]", "Emax": "50 to 100"}
    ]}
  ]
}
